Experimental data reported in US9738634B2, “Heterocyclic amide compound and herbicide” (SYNGENTA PARTICIPATIONS AG, priority 2013, dated 2017).

Tests used:
Format in all cases: in vivo
Conditions in all cases: treatment dosage 320 g/ha
[1] = test system: redroot pigweed; assay: Test Example 4: weedkilling efficacy by foliar treatment; L: redroot pigweed
Method in brief: (§1)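 Seeds are spot-sown into sterilized diluvial soil and covered with about 1.5 cm of soil. After 14 days' greenhouse growth at 25 to 30° C, plants are sprayed on stems and leaves with diluted emulsion at the stated g/ha rate, then scored at 3 weeks.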

[2] = test system: chickweed; assay: Test Example 4: weedkilling efficacy by foliar treatment; N: chickweed
Method in brief: as §1

[3] = test system: green foxtail; assay: Test Example 3: weedkilling efficacy through soil treatment; E: green foxtail
Method in brief: (§2)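 Crop and weed responses were judged three weeks after a uniform surface spray of the water-diluted emulsion at the given g/ha rate. Seeds sat beneath about 1.5 cm of sterilized diluvial soil, and boxes stood in a greenhouse at 25 to 30° C.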

[4] = test system: redroot pigweed; assay: Test Example 3: weedkilling efficacy through soil treatment; L: redroot pigweed
Method in brief: as §2

[5] = test system: wild oat; assay: Test Example 3: weedkilling efficacy through soil treatment; G: wild oat
Method in brief: as §2

[6] = test system: rapeseed; assay: Test Example 3: soil treatment, effect on crop; g: rapeseed
Method in brief: as §2

[7] = test system: barnyard grass; assay: Test Example 3: weedkilling efficacy through soil treatment; F: barnyard grass
Method in brief: as §2

[8] = test system: black-grass; assay: Test Example 4: weedkilling efficacy by foliar treatment; H: black-grass
Method in brief: as §1

[9] = test system: corn; assay: Test Example 4: foliar treatment, effect on crop; c: corn
Method in brief: as §1

[10] = test system: fig-leafed goosefoot; assay: Test Example 3: weedkilling efficacy through soil treatment; M: fig-leafed goosefoot
Method in brief: as §2

[11] = test system: soybean; assay: Test Example 4: foliar treatment, effect on crop; d: soybean
Method in brief: as §1

[12] = test system: transplanted rice; assay: Test Example 1: preemergent weed treatment in the submerged state, effect on crop; a: transplanted rice
Method in brief: (§3)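 Submerged pre-emergence treatment, water-surface application of compound emulsion at g/ha dosages; 4 cm flooded alluvial soil, weeds sown and 2.5-leaf rice transplanted same day. Rated after 3 weeks, greenhouse.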

[13] = test system: common wind-grass; assay: Test Example 3: weedkilling efficacy through soil treatment; J: common wind-grass
Method in brief: as §2

[14] = test system: black-grass; assay: Test Example 3: weedkilling efficacy through soil treatment; H: black-grass
Method in brief: as §2

[15] = test system: soybean; assay: Test Example 3: soil treatment, effect on crop; d: soybean
Method in brief: as §2

[16] = test system: wild oat; assay: Test Example 4: weedkilling efficacy by foliar treatment; G: wild oat
Method in brief: as §1

[17] = test system: wheat; assay: Test Example 4: foliar treatment, effect on crop; e: wheat
Method in brief: as §1

[18] = test system: crabgrass; assay: Test Example 3: weedkilling efficacy through soil treatment; D: crabgrass
Method in brief: as §2

[19] = test system: rapeseed; assay: Test Example 4: foliar treatment, effect on crop; g: rapeseed
Method in brief: as §1

[20] = test system: Italian ryegrass; assay: Test Example 4: weedkilling efficacy by foliar treatment; I: Italian ryegrass
Method in brief: as §1

[21] = test system: barnyard grass; assay: Test Example 4: weedkilling efficacy by foliar treatment; F: barnyard grass
Method in brief: as §1

[22] = test system: birds-eye speedwell; assay: Test Example 3: weedkilling efficacy through soil treatment; p: birds-eye speedwell
Method in brief: as §2

[23] = test system: oval-leafed pondweed; assay: Test Example 2: weedkilling efficacy, growth period weed treatment in the submerged state; C: oval-leafed pondweed
Method in brief: (§4)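 Seedlings at 1-2 leaves in 4 cm-deep submerged alluvial soil received emulsion formulations on the water surface, dosed per hectare; effects were judged 3 weeks on.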

[24] = test system: directly sown rice; assay: Test Example 3: soil treatment, effect on crop; b: directly sown rice
Method in brief: as §2

[25] = test system: corn; assay: Test Example 3: soil treatment, effect on crop; c: corn
Method in brief: as §2

[26] = test system: Indian mallow; assay: Test Example 4: weedkilling efficacy by foliar treatment; K: Indian mallow
Method in brief: as §1

[27] = test system: beet; assay: Test Example 3: soil treatment, effect on crop; f: beet
Method in brief: as §2

[28] = test system: common wind-grass; assay: Test Example 4: weedkilling efficacy by foliar treatment; J: common wind-grass
Method in brief: as §1

[29] = test system: barnyard grass; assay: Test Example 2: weedkilling efficacy, growth period weed treatment in the submerged state; A: barnyard grass
Method in brief: as §4

[30] = test system: beet; assay: Test Example 4: foliar treatment, effect on crop; f: beet
Method in brief: as §1

[31] = test system: chickweed; assay: Test Example 3: weedkilling efficacy through soil treatment; N: chickweed
Method in brief: as §2

[32] = test system: bulrush; assay: Test Example 2: weedkilling efficacy, growth period weed treatment in the submerged state; B: bulrush
Method in brief: as §4

[33] = test system: catchweed; assay: Test Example 4: weedkilling efficacy by foliar treatment; O: catchweed
Method in brief: as §1

[34] = test system: catchweed; assay: Test Example 3: weedkilling efficacy through soil treatment; O: catchweed
Method in brief: as §2

[35] = test system: directly sown rice; assay: Test Example 4: foliar treatment, effect on crop; b: directly sown rice
Method in brief: as §1

[36] = test system: Indian mallow; assay: Test Example 3: weedkilling efficacy through soil treatment; K: Indian mallow
Method in brief: as §2

[37] = test system: wheat; assay: Test Example 3: soil treatment, effect on crop; e: wheat
Method in brief: as §2

[38] = test system: crabgrass; assay: Test Example 4: weedkilling efficacy by foliar treatment; D: crabgrass
Method in brief: as §1

[39] = test system: oval-leafed pondweed; assay: Test Example 1: weedkilling efficacy, preemergent weed treatment in the submerged state; C: oval-leafed pondweed
Method in brief: as §3

[40] = test system: green foxtail; assay: Test Example 4: weedkilling efficacy by foliar treatment; E: green foxtail
Method in brief: as §1

[41] = test system: barnyard grass; assay: Test Example 1: weedkilling efficacy, preemergent weed treatment in the submerged state; A: barnyard grass
Method in brief: as §3

[42] = test system: fig-leafed goosefoot; assay: Test Example 4: weedkilling efficacy by foliar treatment; M: fig-leafed goosefoot
Method in brief: as §1

[43] = test system: Italian ryegrass; assay: Test Example 3: weedkilling efficacy through soil treatment; I: Italian ryegrass
Method in brief: as §2

[44] = test system: bulrush; assay: Test Example 1: weedkilling efficacy, preemergent weed treatment in the submerged state; B: bulrush
Method in brief: as §3

## CC1=C(c2ccccc2)C(=O)N(C(C)(C)C(=O)Nc2ncccc2F)CO1 [B-2-24]
[1]
  L (redroot pigweed) weedkilling efficacy grade: 0 (weed kill ratio 5% or less (practically no effect))
[2]
  N (chickweed) weedkilling efficacy grade: 2 (weed kill ratio 20% or more, less than 40%)
[3]
  E (green foxtail) weedkilling efficacy grade: 3 (weed kill ratio 40% or more, less than 70%)
[4]
  L (redroot pigweed) weedkilling efficacy grade: 0 (weed kill ratio 5% or less (practically no effect))
[5]
  G (wild oat) weedkilling efficacy grade: 0 (weed kill ratio 5% or less (practically no effect))
[6]
  g (rapeseed) effect on crop grade: 0 (weed kill ratio 5% or less (practically no effect))
[7]
  F (barnyard grass) weedkilling efficacy grade: 3 (weed kill ratio 40% or more, less than 70%)
[8]
  H (black-grass) weedkilling efficacy grade: 0 (weed kill ratio 5% or less (practically no effect))
[9]
  c (corn) effect on crop grade: 0 (weed kill ratio 5% or less (practically no effect))
[10]
  M (fig-leafed goosefoot) weedkilling efficacy grade: 0 (weed kill ratio 5% or less (practically no effect))
[11]
  d (soybean) effect on crop grade: 0 (weed kill ratio 5% or less (practically no effect))
[12]
  a (transplanted rice) effect on crop grade: 0 (weed kill ratio 5% or less (practically no effect))
[13]
  J (common wind-grass) weedkilling efficacy grade: 3 (weed kill ratio 40% or more, less than 70%)
[14]
  H (black-grass) weedkilling efficacy grade: 0 (weed kill ratio 5% or less (practically no effect))
[15]
  d (soybean) effect on crop grade: 0 (weed kill ratio 5% or less (practically no effect))
[16]
  G (wild oat) weedkilling efficacy grade: 0 (weed kill ratio 5% or less (practically no effect))
[17]
  e (wheat) effect on crop grade: 0 (weed kill ratio 5% or less (practically no effect))
[18]
  D (crabgrass) weedkilling efficacy grade: 3 (weed kill ratio 40% or more, less than 70%)
[19]
  g (rapeseed) effect on crop grade: 0 (weed kill ratio 5% or less (practically no effect))
[20]
  I (Italian ryegrass) weedkilling efficacy grade: 0 (weed kill ratio 5% or less (practically no effect))
[21]
  F (barnyard grass) weedkilling efficacy grade: 0 (weed kill ratio 5% or less (practically no effect))
[22]
  P (birds-eye speedwell) weedkilling efficacy grade: 0 (weed kill ratio 5% or less (practically no effect))
[23]
  C (oval-leafed pondweed) weedkilling efficacy grade: 3 (weed kill ratio 40% or more, less than 70%)
[24]
  b (directly sown rice) effect on crop grade: 0 (weed kill ratio 5% or less (practically no effect))
[25]
  c (corn) effect on crop grade: 0 (weed kill ratio 5% or less (practically no effect))
[26]
  K (Indian mallow) weedkilling efficacy grade: 0 (weed kill ratio 5% or less (practically no effect))
[27]
  f (beet) effect on crop grade: 0 (weed kill ratio 5% or less (practically no effect))
[28]
  J (common wind-grass) weedkilling efficacy grade: 1 (weed kill ratio 5% or more, less than 20%)
[29]
  A (barnyard grass) weedkilling efficacy grade: 1 (weed kill ratio 5% or more, less than 20%)
[30]
  f (beet) effect on crop grade: 0 (weed kill ratio 5% or less (practically no effect))
[31]
  N (chickweed) weedkilling efficacy grade: 3 (weed kill ratio 40% or more, less than 70%)
[32]
  B (bulrush) weedkilling efficacy grade: 4 (weed kill ratio 70% or more, less than 90%)
[33]
  O (catchweed) weedkilling efficacy grade: 3 (weed kill ratio 40% or more, less than 70%)
[34]
  O (catchweed) weedkilling efficacy grade: 0 (weed kill ratio 5% or less (practically no effect))
[35]
  b (directly sown rice) effect on crop grade: 0 (weed kill ratio 5% or less (practically no effect))
[36]
  K (Indian mallow) weedkilling efficacy grade: 0 (weed kill ratio 5% or less (practically no effect))
[37]
  e (wheat) effect on crop grade: 0 (weed kill ratio 5% or less (practically no effect))
[38]
  D (crabgrass) weedkilling efficacy grade: 0 (weed kill ratio 5% or less (practically no effect))
[39]
  C (oval-leafed pondweed) weedkilling efficacy grade: 3 (weed kill ratio 40% or more, less than 70%)
[40]
  E (green foxtail) weedkilling efficacy grade: 1 (weed kill ratio 5% or more, less than 20%)
[41]
  A (barnyard grass) weedkilling efficacy grade: 2 (weed kill ratio 20% or more, less than 40%)
[42]
  M (fig-leafed goosefoot) weedkilling efficacy grade: 4 (weed kill ratio 70% or more, less than 90%)
[43]
  I (Italian ryegrass) weedkilling efficacy grade: 0 (weed kill ratio 5% or less (practically no effect))
[44]
  B (bulrush) weedkilling efficacy grade: 5 (weed kill ratio 90% or more, (practically complete withering))
